From PMC11277489, “Novel Piperazine Derivatives of Vindoline as Anticancer Agents” (International Journal of Molecular Sciences, 2024)

Legend:
OVCAR-8 = test: NCI60 one-dose screen (10 μM), Ovarian Cancer; assay type: cell-based; conditions: Homo sapiens, OVCAR-8, read-out: Growth percent rate
DU-145 = test: NCI60 one-dose screen (10 μM), Prostate Cancer; assay type: cell-based; conditions: Homo sapiens, DU-145, read-out: Growth percent rate
HCT-116 = test: NCI60 one-dose screen (10 μM), Colon Cancer; assay type: cell-based; conditions: Homo sapiens, HCT-116, read-out: Growth percent rate
EKVX = test: NCI60 one-dose screen (10 μM), Non-small Cell Lung Cancer; assay type: cell-based; conditions: Homo sapiens, read-out: Growth percent rate
NCI-H522 = test: as above; assay type: cell-based; conditions: Homo sapiens, NCI-H522, read-out: Growth percent rate
MCF7 = test: NCI60 one-dose screen (10 μM), Breast Cancer; assay type: cell-based; conditions: Homo sapiens, MCF7, read-out: Growth percent rate
SNB-75 = test: NCI60 one-dose screen (10 μM), CNS Cancer; assay type: cell-based, human; conditions: Homo sapiens, SNB-75, read-out: Growth percent rate
NCI-H23 = test: NCI60 one-dose screen (10 μM), Non-small Cell Lung Cancer; assay type: cell-based; conditions: Homo sapiens, NCI-H23, read-out: Growth percent rate
HT29 = test: NCI60 one-dose screen (10 μM), Colon Cancer; assay type: cell-based; conditions: Homo sapiens, HT-29, read-out: Growth percent rate
SF-268 = test: NCI60 one-dose screen (10 μM), CNS Cancer; assay type: cell-based; conditions: Homo sapiens, SF-268, read-out: Growth percent rate
K-562 = test: NCI60 one-dose screen (10 μM), Leukemia; assay type: cell-based; conditions: Homo sapiens, K562, read-out: Growth percent rate
OVCAR-3 = test: NCI60 one-dose screen (10 μM), Ovarian Cancer; assay type: cell-based; conditions: Homo sapiens, OVCAR-3, read-out: Growth percent rate
SK-MEL-5 = test: NCI60 one-dose screen (10 μM), Melanoma; assay type: cell-based, human; conditions: Homo sapiens, SK-MEL-5, read-out: Growth percent rate
U251 = test: NCI60 one-dose screen (10 μM), CNS Cancer; assay type: cell-based; conditions: Homo sapiens, U-251, read-out: Growth percent rate
RPMI-8226 = test: NCI60 one-dose screen (10 μM), Leukemia; assay type: cell-based; conditions: Homo sapiens, RPMI-8226, read-out: Growth percent rate
MALME-3M = test: NCI60 one-dose screen (10 μM), Melanoma; assay type: cell-based; conditions: Homo sapiens, Malme-3M, read-out: Growth percent rate
M14 = test: NCI60 one-dose screen (10 μM), Melanoma; assay type: cell-based; conditions: Homo sapiens, M14, read-out: Growth percent rate
KM12 = test: NCI60 one-dose screen (10 μM), Colon Cancer; assay type: cell-based, human; conditions: Homo sapiens, KM12, read-out: Growth percent rate
A498 = test: NCI60 one-dose screen (10 μM), Renal Cancer; assay type: cell-based; conditions: Homo sapiens, A498, read-out: Growth percent rate
UACC-257 = test: NCI60 one-dose screen (10 μM), Melanoma; assay type: cell-based; conditions: Homo sapiens, UACC-257, read-out: Growth percent rate
SK-MEL-2 = test: NCI60 one-dose screen (10 μM), Melanoma; assay type: cell-based; conditions: Homo sapiens, SK-MEL-2, read-out: Growth percent rate
[1] = test system: 60 human tumor cell lines (NCI60); test: NCI60 one-dose screen (10 μM), whole panel; assay type: cell-based; conditions: Homo sapiens, read-out: Growth percent rate, Mean
SN12C = test: NCI60 one-dose screen (10 μM), Renal Cancer; assay type: cell-based; conditions: Homo sapiens, read-out: Growth percent rate
NCI-H322M = test: NCI60 one-dose screen (10 μM), Non-small Cell Lung Cancer; assay type: cell-based; conditions: Homo sapiens, read-out: Growth percent rate
A549/ATCC = test: as above; assay type: cell-based; conditions: Homo sapiens, A549, read-out: Growth percent rate
MDA-MB-435 = test: NCI60 one-dose screen (10 μM), Melanoma; assay type: cell-based; conditions: Homo sapiens, MDA-MB-435, read-out: Growth percent rate
HCC-2998 = test: NCI60 one-dose screen (10 μM), Colon Cancer; assay type: cell-based; conditions: Homo sapiens, HCC 2998, read-out: Growth percent rate
SK-MEL-28 = test: NCI60 one-dose screen (10 μM), Melanoma; assay type: cell-based; conditions: Homo sapiens, SK-MEL-28, read-out: Growth percent rate
HL-60(TB) = test: NCI60 one-dose screen (10 μM), Leukemia; assay type: cell-based; conditions: Homo sapiens, HL-60, read-out: Growth percent rate
HOP-62 = test: NCI60 one-dose screen (10 μM), Non-small Cell Lung Cancer; assay type: cell-based; conditions: Homo sapiens, HOP-62, read-out: Growth percent rate
SNB-19 = test: NCI60 one-dose screen (10 μM), CNS Cancer; assay type: cell-based; conditions: Homo sapiens, SNB-19, read-out: Growth percent rate
786–0 = test: NCI60 one-dose screen (10 μM), Renal Cancer; assay type: cell-based; conditions: Homo sapiens, 786-0, read-out: Growth percent rate
SF-295 = test: NCI60 one-dose screen (10 μM), CNS Cancer; assay type: cell-based; conditions: Homo sapiens, SF-295, read-out: Growth percent rate
ACHN = test: NCI60 one-dose screen (10 μM), Renal Cancer; assay type: cell-based; conditions: Homo sapiens, read-out: Growth percent rate
TK-10 = test: NCI60 one-dose screen (10 μM), Renal Cancer; assay type: cell-based; conditions: Homo sapiens, TK-10, read-out: Growth percent rate
IGROV1 = test: NCI60 one-dose screen (10 μM), Ovarian Cancer; assay type: cell-based; conditions: Homo sapiens, IGROV-1, read-out: Growth percent rate
MOLT-4 = test: NCI60 one-dose screen (10 μM), Leukemia; assay type: cell-based, human; conditions: Homo sapiens, MOLT-4, read-out: Growth percent rate
SW-620 = test: NCI60 one-dose screen (10 μM), Colon Cancer; assay type: cell-based; conditions: Homo sapiens, SW-620, read-out: Growth percent rate
CCRF-CEM = test: NCI60 one-dose screen (10 μM), Leukemia; assay type: cell-based; conditions: Homo sapiens, read-out: Growth percent rate
NCI-H460 = test: NCI60 one-dose screen (10 μM), Non-small Cell Lung Cancer; assay type: cell-based; conditions: Homo sapiens, NCI-H460, read-out: Growth percent rate
OVCAR-4 = test: NCI60 one-dose screen (10 μM), Ovarian Cancer; assay type: cell-based; conditions: Homo sapiens, OVCAR-4, read-out: Growth percent rate
CAKI-1 = test: NCI60 one-dose screen (10 μM), Renal Cancer; assay type: cell-based; conditions: Homo sapiens, CAKI-1, read-out: Growth percent rate

With `CCC12C=CCN3CCC4(c5cc(NC(=O)CN6CCN(Cc7ccc(C(F)(F)F)cc7)CC6)c(OC)cc5N(C)C4C(O)(C(=O)OC)C1OC(C)=O)C32` (stereo not drawn) [Compound 18] the activity at 10 µM (OVCAR-8) was 72%, the activity at 10 µM (DU-145) was 71.6% and the activity at 10 µM (HCT-116) was 46.4%. For the same compound, the activity at 10 µM (EKVX) was 61.6%, the activity at 10 µM (NCI-H522) was 55.2% and the activity at 10 µM (MCF7) was 32.6%. For the same compound, the activity at 10 µM (SNB-75) was 20.3%, the activity at 10 µM (NCI-H23) was 73.1% and the activity at 10 µM (HT29) was 39.3%. The activity at 10 µM (SF-268) was 65.2%, the activity at 10 µM (K-562) was 43.8% and the activity at 10 µM (OVCAR-3) was 84.5%. For the same compound, the activity at 10 µM (SK-MEL-5) was 21.2%, the activity at 10 µM (U251) was 74.8% and the activity at 10 µM (RPMI-8226) was 17.4%. For the same compound, the activity at 10 µM (MALME-3M) was 73.3%, the activity at 10 µM (M14) was 67.2% and the activity at 10 µM (KM12) was 83%. For the same compound, the activity at 10 µM (A498) was 78.7%, the activity at 10 µM (UACC-257) was 80.6% and the activity at 10 µM (SK-MEL-2) was 72.9%. For the same compound, the activity at 10 µM [1] was 60.6%, the activity at 10 µM (SN12C) was 59.3% and the activity at 10 µM (NCI-H322M) was 64.6%. The activity at 10 µM (A549/ATCC) was 54.1%, the activity at 10 µM (MDA-MB-435) was 63.9% and the activity at 10 µM (HCC-2998) was 79.1%. For the same compound, the activity at 10 µM (SK-MEL-28) was 90.8%, the activity at 10 µM (HL-60(TB)) was 42.6% and the activity at 10 µM (HOP-62) was 86.1%. For the same compound, the activity at 10 µM (SNB-19) was 47.4%, the activity at 10 µM (786–0) was 75.5% and the activity at 10 µM (SF-295) was 75.4%. The activity at 10 µM (ACHN) was 67.3%, the activity at 10 µM (TK-10) was 81.5% and the activity at 10 µM (IGROV1) was 71.3%. The activity at 10 µM (MOLT-4) was 16.7%, the activity at 10 µM (SW-620) was 87% and the activity at 10 µM (CCRF-CEM) was 39.4%. For the same compound, the activity at 10 µM (NCI-H460) was 62.1%, the activity at 10 µM (OVCAR-4) was 63.1% and the activity at 10 µM (CAKI-1) was 33%.
For `CCC12C=CCN3CCC4(c5cc(NC(=O)CN6CCN(Cc7ccc(F)cc7)CC6)c(OC)cc5N(C)C4C(O)(C(=O)OC)C1OC(C)=O)C32` (stereo not drawn) [Compound 19], the activity at 10 µM (OVCAR-8) was 100%, the activity at 10 µM (DU-145) was 111% and the activity at 10 µM (HCT-116) was 101%. It also gave an activity at 10 µM (EKVX) of 88.8%, an activity at 10 µM (NCI-H522) of 93.5% and an activity at 10 µM (MCF7) of 80%. For the same compound, the activity at 10 µM (SNB-75) was 87.3%, the activity at 10 µM (NCI-H23) was 103% and the activity at 10 µM (HT29) was 108%. For the same compound, the activity at 10 µM (SF-268) was 102%, the activity at 10 µM (K-562) was 74% and the activity at 10 µM (OVCAR-3) was 119%. It also gave an activity at 10 µM (SK-MEL-5) of 92.8%, an activity at 10 µM (U251) of 103% and an activity at 10 µM (RPMI-8226) of 94.1%. For the same compound, the activity at 10 µM (MALME-3M) was 102%, the activity at 10 µM (M14) was 102% and the activity at 10 µM (KM12) was 115%. The activity at 10 µM (A498) was 132%, the activity at 10 µM (UACC-257) was 98.4% and the activity at 10 µM (SK-MEL-2) was 103%. It also gave an activity at 10 µM [1] of 99.6%, an activity at 10 µM (SN12C) of 103% and an activity at 10 µM (NCI-H322M) of 98.5%. For the same compound, the activity at 10 µM (A549/ATCC) was 89%, the activity at 10 µM (MDA-MB-435) was 103% and the activity at 10 µM (HCC-2998) was 102%. For the same compound, the activity at 10 µM (SK-MEL-28) was 109%, the activity at 10 µM (HL-60(TB)) was 101% and the activity at 10 µM (HOP-62) was 106%. It also gave an activity at 10 µM (SNB-19) of 97.2%, an activity at 10 µM (786–0) of 92.8% and an activity at 10 µM (SF-295) of 99.8%. For the same compound, the activity at 10 µM (ACHN) was 102%, the activity at 10 µM (TK-10) was 107% and the activity at 10 µM (IGROV1) was 113%. The activity at 10 µM (MOLT-4) was 78%, the activity at 10 µM (SW-620) was 118% and the activity at 10 µM (CCRF-CEM) was 105%. It also gave an activity at 10 µM (NCI-H460) of 129%, an activity at 10 µM (OVCAR-4) of 102% and an activity at 10 µM (CAKI-1) of 69.3%.
